# Test results: patent US20120107323A1, “KINASE PROTEIN BINDING INHIBITORS” (University of Florida, priority 2009, published 2012)
# Assays:
# melanoma tumor = assay: Melanoma tumor in nude mice, 5 days of treatment; type: in vivo; conditions: 15 mg/kg intraperitoneal for 5 days, p<0.05
# [1] = test system: esophageal patient #5 cells; assay: Cell viability (MTT), esophageal patient #5 cells; type: cell-based; conditions: Homo sapiens, average IC50
# Procedure: Cell viability (MTT) and CFSE Proliferation assay: Cells were plated in 96-well plates and let adhere overnight. After cell treatment, cell viability was measured by 3-(4,5-dimethylthiazol-2-yl)-2,5-diphenyl tetrazolium bromide (MTT) assay (CellTiter 96® Aqueous, Promega, Madison, Wis.).
# To assimilate the effects of targeting the interaction of these proteins in direct patient specimens, a system was developed in which direct esophageal cancer specimens were grown in mice and tissue culture plates to allow fresh human tissue for experimentation. More than 20 tumors and corresponding normal tissue specimens have been obtained from cancer patients. […] To evaluate the in vitro effects of INT2-31 on patient specimens, we utilized MTT assay of cells grown in a tissue culture plate maximum up to eight passages were utilized.
# A375 melanoma cells = assay: CFSE cell proliferation assay, A375; type: cell-based, human
# Procedure: (§1) For staining with CFSE (Molecular Probes, Eugene, Oreg.)., 1×10^7/ml cells were suspended in PBS and incubated at 37° C. for 5 min with the 10 μM of CFSE. Stained cells were cultured with medium alone or with inhibitor for 24, 48, and 72 hours, fixed and analyzed by a FACS Calibur cytometer (Becton Dickinson, San Jose, Calif.).
# C8161 melanoma cells = assay: CFSE cell proliferation assay, C8161; type: cell-based, human; conditions: effect greater than in A375
# Procedure: as §1
# GST-FAK-NT2 and IGF-1Rβ = target: T1, GST-FAK-NT2 and IGF-1Rβ (Homo sapiens, UniProt Q05397); assay: Pull-down assay with purified GST-FAK-NT2 and IGF-1Rβ; conditions: average IC50, pulldown; read-out: IC50, decrease in binding between purified GST-FAK-NT2 and IGF-1Rβ
# T1 construct: host or cells: E. coli BL21 (DE3) for GST-FAK-NT2
# Description: Computational Docking The crystal structures of the N-terminal domain of FAK (PDB code 2AL6) (22) and the kinase domain of IGF-1R(PDB 1P40A) (23) were utilized for in silico molecular modeling of their interaction as previously described. The three-dimensional coordinates of compound NSC344553 (INT2-31), obtained from the database of the National Cancer Institute, Developmental Therapeutics Program (NCI/DTP), were docked onto the predicted interface of the amino-terminus of FAK (amino acids 127-243) with the intracytoplasmic portion of IGF-1R (21). […] 100 orientations were created for NSC344553 in the target site and were scored using the computer program grid-based scoring function. […] The intermolecular energies for all configurations of NSC 344553 in binding to FAK-NT2 were calculated as the sum of electrostatic and van der Waals energies. These energy terms were evaluated as correlation functions, which were computed efficiently with Fast Fourier Transforms. […] Bound proteins were boiled in 6× Laemmli buffer and analyzed by SDS-PAGE and Western blotting. […] The intensity of the bands in the western blots was measured with scion image analysis software program. […]
# T1 sequence (Q05397 127-243): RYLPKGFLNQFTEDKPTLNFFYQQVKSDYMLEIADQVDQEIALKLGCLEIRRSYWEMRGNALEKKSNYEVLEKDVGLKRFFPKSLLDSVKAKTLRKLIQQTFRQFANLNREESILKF
compound,measurement,setting,value
"CSc1ncnc2c1ccn2C1O[C@H](COP(=O)(O)O)[C@@H](O)[C@H]1O (stereo partly drawn) [INT2-31, 4-(Methylthio)-7-(5-O-phosphono-D-ribofuranosyl)-{7H-Pyrrolo[2,3-d]pyrimidine}]",melanoma tumor regression,melanoma tumor,caused melanoma tumor regression
same,IC50,[1],2.18 µM
same,cell proliferation (CSFE),A375 melanoma cells,inhibited cell proliferation
same,cell proliferation (CSFE),C8161 melanoma cells,inhibited cell proliferation
same,IC50,GST-FAK-NT2 and IGF-1Rβ,3.96 µM
